Measured values taken from patent US3981865A, “Bis-type penicillins and process for producing the same” (Toyama Chemical Co., Ltd., priority 1974, dated 1976).
In brackets after ≈: the same amount, converted by molar mass.

Key:
Escherchia coli NIHJ = assay: MIC by plate method, standard strains; type: cell-based; settings: Heart infusion agar pH 7.4, inoculum 10^4 cells per plate (10^6 cells/ml.), unit assumed
Method: (§1) The minimum inhibitory concentration (MIC) was determined by the plate method disclosed in "Chemotherapy" (Japan), Vol. 16, (1968), pages 98 - 99. The culture medium used was a Heart infusion agar (pH 7.4). The number of the cells per plate used in the inoculum was 10^4 (10^6 cells/ml.).

Klebsiella pneumoniae = assay: MIC by plate method, standard strains; type: cell-based; settings: Heart infusion agar pH 7.4, inoculum 10^4 cells per plate (10^6 cells/ml.), unit assumed
Method: as §1

Proteus vulgaris 3027 = assay: MIC by plate method, standard strains; type: cell-based; settings: Heart infusion agar pH 7.4, inoculum 10^4 cells per plate (10^6 cells/ml.), unit assumed
Method: as §1

[1] = test system: Pseudomonas aeruginosa I.F.O.; assay: MIC by plate method, standard strains; type: cell-based; settings: Heart infusion agar pH 7.4, inoculum 10^4 cells per plate (10^6 cells/ml.), unit assumed
Method: as §1

[2] = test system: Staphylococcus aureus 209P; assay: MIC by plate method, standard strains; type: cell-based; settings: Heart infusion agar pH 7.4, inoculum 10^4 cells per plate (10^6 cells/ml.), unit assumed
Method: as §1

[3] = test system: β-lactamase from Escherchia coli 33; assay: Resistant activity against β-lactamase, iodometric assay; type: biochemical; settings: β-lactamase hydrolysis, relative to Potassium Penicillin G = 100
Method: (§2) 3. Resistant activity against β-lactamase, Pseudomonas aeruginosa GN 238 and Escherchia coli 33:
(§3) The resistant activity of each compound against β-lactamase was measured in the manner described below.
(§4) β-Lactamase was prepared from Pseudomonas aeruginosa GN 238 and Escherchia coli 33. This microorganism was cultured in 100 ml. of a medium containing 2 g. of yeast extract, 10 g. of polypeptone, 2 g. of glucose, 7 g. of disodium hydrogen phosphate, 2 g. of potassium dihydrogen phosphate, 1.2 g. of ammonium sulfate and 0.4 g. of magnesium sulfate, per liter, in a 500-ml. Erlenmeyer flask for 6 hrs. at 37°C with shaking. The resulting cells were collected by centrifugation (5,000 r.p.m. × 10 min.), washed three times with 0.1 M phosphate buffer (pH 7.0). Subsequently, the cells were subjected to sonication (20 KHz, 20 min.) and then centrifuged at 15,000 r.p.m. for 60 min. By using the supernatant of enzyme fluid, the resistance of each compound against β-lactamase was determined by the iodometric assay method. Each numeral shown in Table 3 is a relative activity value calculated by assuming as 100 the activity of the control Potassium Penicillin G.

[4] = test system: β-lactamase from Pseudomonas aeruginosa GN 238; assay: as above; type: biochemical; settings: β-lactamase hydrolysis, relative to Potassium Penicillin G = 100
Method: as §2, §3, §4

[5] = test system: Pseudomonas aeruginosa clinical isolates; assay: MIC by plate method, clinical isolates of bacteria; type: cell-based; settings: for MIC Pseudomonas aeruginosa GN 82: clinical isolate GN 82, Heart infusion agar pH 7.4, unit assumed; for MIC Pseudomonas aeruginosa GN 163: clinical isolate GN 163, Heart infusion agar pH 7.4, unit assumed; for MIC Pseudomonas aeruginosa GN 221: clinical isolate GN 221, Heart infusion agar pH 7.4, unit assumed; for MIC Pseudomonas aeruginosa GN 264: clinical isolate GN 264, Heart infusion agar pH 7.4, unit assumed; for MIC Pseudomonas aeruginosa GN 376: clinical isolate GN 376, Heart infusion agar pH 7.4, unit assumed; for MIC Pseudomonas aeruginosa GN 383: clinical isolate GN 383, Heart infusion agar pH 7.4, unit assumed; for MIC Pseudomonas aeruginosa GN 1035: clinical isolate GN 1035, Heart infusion agar pH 7.4, unit assumed; for MIC Pseudomonas aeruginosa GN 1091: clinical isolate GN 1091, Heart infusion agar pH 7.4, unit assumed; for MIC Pseudomonas aeruginosa GN 2565: clinical isolate GN 2565, Heart infusion agar pH 7.4, unit assumed; for MIC Pseudomonas aeruginosa GN 2987: clinical isolate GN 2987, Heart infusion agar pH 7.4, unit assumed; for MIC Pseudomonas aeruginosa S-2: clinical isolate S-2, Heart infusion agar pH 7.4, unit assumed; for MIC Pseudomonas aeruginosa S-3: clinical isolate S-3, Heart infusion agar pH 7.4, unit assumed; for MIC Pseudomonas aeruginosa S-4: clinical isolate S-4, Heart infusion agar pH 7.4, unit assumed
Method: as §1
MIC was determined in the same manner as in the preceding paragraph (1).

[6] = Acute toxicity LD50 i.v. in mouse; settings: in vivo, iv; i.v. in mouse having a weight of 19 ± 1 g.
Source text: The present penicillins have generally low toxicity.

SMILES | MIC Escherchia coli NIHJ (Escherchia coli NIHJ) | MIC Klebsiella pneumoniae (Klebsiella pneumoniae) | MIC Proteus vulgaris 3027 (Proteus vulgaris 3027) | MIC Pseudomonas aeruginosa I.F.O. [1] | MIC Staphylococcus aureus 209P [2] | Relative activity (%) Escherchia coli 33 [3] | Relative activity (%) Pseudomonas aeruginosa GN238 [4] | other results
CC1(C)S[C@@H]2[C@H](NC(=O)[C@H](NC(=O)NC(=O)c3ccc(C(=O)NC(=O)N[C@@H](C(=O)N[C@@H]4C(=O)N5[C@@H]4SC(C)(C)[C@@H]5C(=O)O)c4ccccc4)cc3)c3ccccc3)C(=O)N2[C@H]1C(=O)O [Compound No. 1] | 3.13 µg/mL (≈ 3.42 µM) | 25 µg/mL (≈ 27.3 µM) | 25 µg/mL (≈ 27.3 µM) | 12.5 µg/mL (≈ 13.7 µM) | < 1.57 µg/mL | 12% | 18% | 
CC1(C)S[C@@H]2[C@H](NC(=O)[C@H](NC(=O)NC(=O)CCC(=O)NC(=O)N[C@@H](C(=O)N[C@@H]3C(=O)N4[C@@H]3SC(C)(C)[C@@H]4C(=O)O)c3ccccc3)c3ccccc3)C(=O)N2[C@H]1C(=O)O [Compound No. 3, N,N'-succinyl-bis[6-(D(-)-α-ureidophenylacetamido)penicillanic acid]] | 12.5 µg/mL (≈ 14.4 µM) | 100 µg/mL (≈ 115 µM) | 12.5 µg/mL (≈ 14.4 µM) | 25 µg/mL (≈ 28.8 µM) | < 1.57 µg/mL | 3% | 5% | MIC Pseudomonas aeruginosa GN 82 [5]: 12.5 µg/mL (≈ 14.4 µM); MIC Pseudomonas aeruginosa GN 163 [5]: 25 µg/mL (≈ 28.8 µM); MIC Pseudomonas aeruginosa GN 221 [5]: 25 µg/mL (≈ 28.8 µM); MIC Pseudomonas aeruginosa GN 264 [5]: 50 µg/mL (≈ 57.7 µM); MIC Pseudomonas aeruginosa GN 376 [5]: 25 µg/mL (≈ 28.8 µM); MIC Pseudomonas aeruginosa GN 383 [5]: 50 µg/mL (≈ 57.7 µM); MIC Pseudomonas aeruginosa GN 1035 [5]: 50 µg/mL (≈ 57.7 µM); MIC Pseudomonas aeruginosa GN 1091 [5]: 25 µg/mL (≈ 28.8 µM); MIC Pseudomonas aeruginosa GN 2565 [5]: 25 µg/mL (≈ 28.8 µM); MIC Pseudomonas aeruginosa GN 2987 [5]: 25 µg/mL (≈ 28.8 µM); MIC Pseudomonas aeruginosa S-2 [5]: 25 µg/mL (≈ 28.8 µM); MIC Pseudomonas aeruginosa S-3 [5]: 25 µg/mL (≈ 28.8 µM); MIC Pseudomonas aeruginosa S-4 [5]: 25 µg/mL (≈ 28.8 µM); LD50 [6]: > 3000 mg/kg
CC1(C)S[C@@H]2[C@H](NC(=O)[C@H](NC(=O)NC(=O)CCCCCCCCC(=O)NC(=O)N[C@@H](C(=O)N[C@@H]3C(=O)N4[C@@H]3SC(C)(C)[C@@H]4C(=O)O)c3ccccc3)c3ccccc3)C(=O)N2[C@H]1C(=O)O [Compound No. 4, N,N'-sebacoyl-bis[6-(D(-)-α-ureidophenylacetamido)penicillanic acid]] | 3.13 µg/mL (≈ 3.29 µM) | 25 µg/mL (≈ 26.3 µM) | 25 µg/mL (≈ 26.3 µM) | 50 µg/mL (≈ 52.6 µM) | < 1.57 µg/mL | 8% | 12% | 
CC1(C)S[C@@H]2[C@H](NC(=O)[C@H](NC(=O)NC(=O)CCCCCCCCCCCC(=O)NC(=O)N[C@@H](C(=O)N[C@@H]3C(=O)N4[C@@H]3SC(C)(C)[C@@H]4C(=O)O)c3ccccc3)c3ccccc3)C(=O)N2[C@H]1C(=O)O [Compound No. 6, N,n'-tridecanedioyl-bis[6-(D(-)-α-ureidophenylacetamido)penicillanic acid]] | 3.13 µg/mL (≈ 3.15 µM) | 12.5 µg/mL (≈ 12.6 µM) | 25 µg/mL (≈ 25.2 µM) | 25 µg/mL (≈ 25.2 µM) | < 1.57 µg/mL | < 1% | < 1% | 
CC1(C)S[C@@H]2[C@H](NC(=O)Cc3ccccc3)C(=O)N2[C@H]1C(=O)O [Potassium Penicillin G, reference compound] |  |  |  |  |  | 100% | 100% | 
CC1(C)S[C@@H]2[C@H](NC(=O)[C@H](N)c3ccccc3)C(=O)N2[C@H]1C(=O)O [Sodium Ampicillin, reference compound] | < 1.57 µg/mL | 50 µg/mL | > 200 µg/mL | > 200 µg/mL | < 1.57 µg/mL |  |  | MIC Pseudomonas aeruginosa GN 82 [5]: > 200 µg/mL; MIC Pseudomonas aeruginosa GN 163 [5]: > 200 µg/mL; MIC Pseudomonas aeruginosa GN 221 [5]: > 200 µg/mL; MIC Pseudomonas aeruginosa GN 264 [5]: > 200 µg/mL; MIC Pseudomonas aeruginosa GN 376 [5]: > 200 µg/mL; MIC Pseudomonas aeruginosa GN 383 [5]: > 200 µg/mL; MIC Pseudomonas aeruginosa GN 1035 [5]: > 200 µg/mL; MIC Pseudomonas aeruginosa GN 1091 [5]: > 200 µg/mL; MIC Pseudomonas aeruginosa GN 2565 [5]: > 200 µg/mL; MIC Pseudomonas aeruginosa GN 2987 [5]: > 200 µg/mL; MIC Pseudomonas aeruginosa S-2 [5]: > 200 µg/mL; MIC Pseudomonas aeruginosa S-3 [5]: > 200 µg/mL; MIC Pseudomonas aeruginosa S-4 [5]: > 200 µg/mL
CC1(C)S[C@@H]2[C@H](NC(=O)[C@H](NC(=O)NC(=O)c3ccc4cc(C(=O)NC(=O)N[C@@H](C(=O)N[C@@H]5C(=O)N6[C@@H]5SC(C)(C)[C@@H]6C(=O)O)c5ccccc5)ccc4c3)c3ccccc3)C(=O)N2[C@H]1C(=O)O [compound 2] | < 1.57 µg/mL | 3.13 µg/mL (≈ 3.24 µM) | 3.15 µg/mL (≈ 3.26 µM) | 25 µg/mL (≈ 25.9 µM) | < 1.57 µg/mL |  |  | 
CC1(C)S[C@@H]2[C@H](NC(=O)[C@H](NC(=O)NC(=O)CCCCCCCCCCC(=O)NC(=O)N[C@@H](C(=O)N[C@@H]3C(=O)N4[C@@H]3SC(C)(C)[C@@H]4C(=O)O)c3ccccc3)c3ccccc3)C(=O)N2[C@H]1C(=O)O [compound 5, N,n'-dodecanedioyl-bis[6-(D(-)-α-ureidophenylacetamido)penicillanic acid]] | 3.13 µg/mL (≈ 3.2 µM) | 12.5 µg/mL (≈ 12.8 µM) | 100 µg/mL (≈ 102 µM) | 50 µg/mL (≈ 51.1 µM) | < 1.57 µg/mL |  |  | 
CC1(C)S[C@@H]2[C@H](NC(=O)[C@H](NC(=O)NC(=O)COc3ccc(OCC(=O)NC(=O)N[C@@H](C(=O)N[C@@H]4C(=O)N5[C@@H]4SC(C)(C)[C@@H]5C(=O)O)c4ccccc4)cc3)c3ccccc3)C(=O)N2[C@H]1C(=O)O [compound 7] | 6.25 µg/mL (≈ 6.41 µM) | 25 µg/mL (≈ 25.6 µM) | 12.5 µg/mL (≈ 12.8 µM) | 25 µg/mL (≈ 25.6 µM) | < 1.57 µg/mL |  |  | 
CC1(C)S[C@@H]2[C@H](NC(=O)[C@H](NC(=O)NC(=O)c3ccc(CCc4ccc(C(=O)NC(=O)N[C@@H](C(=O)N[C@@H]5C(=O)N6[C@@H]5SC(C)(C)[C@@H]6C(=O)O)c5ccccc5)cc4)cc3)c3ccccc3)C(=O)N2[C@H]1C(=O)O [compound 8] | < 1.57 µg/mL | 6.25 µg/mL (≈ 6.13 µM) | 6.25 µg/mL (≈ 6.13 µM) | 50 µg/mL (≈ 49.1 µM) | < 1.57 µg/mL |  |  | 
CC1(C)S[C@@H]2[C@H](NC(=O)[C@H](NC(=O)NC(=O)c3ccc(C(=O)c4ccc(C(=O)NC(=O)N[C@@H](C(=O)N[C@@H]5C(=O)N6[C@@H]5SC(C)(C)[C@@H]6C(=O)O)c5ccccc5)cc4)cc3)c3ccccc3)C(=O)N2[C@H]1C(=O)O [compound 9] | 3.13 µg/mL (≈ 3.07 µM) | 12.5 µg/mL (≈ 12.3 µM) | 12.5 µg/mL (≈ 12.3 µM) | 25 µg/mL (≈ 24.5 µM) | < 1.57 µg/mL |  |  | 
